Measured values reported in the supplement of paper PMC10331698.
± gives the standard deviation of the averaged measurements.

Key:
Experiment in all cases: level (log10 ratio to DMSO vehicle control); higher = higher biomarker level / cell amount than vehicle control
[1] = compound: C=C(C)C(=O)OCC(F)(F)C(F)(F)C(F)(F)F [2,2,3,3,4,4,4-Heptafluorobutyl methacrylate]; settings: in DMSO
Experimental: (§1)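 BioMAP Diversity Plus panel of 12 human primary cell co-culture systems (3C, 4H, LPS, SAg, BT, BF4T, BE3C, CASM3C, HDF3CGF, KF3CT, MyoF, Mphg). Compounds were added 1 h before stimulation and left for 24 h (MyoF 48 h; BT 72 h for soluble read-outs or 6 d for IgG). Biomarkers were read by ELISA, cytotoxicity by SRB, PBMC viability and proliferation by Alamar Blue. Each well value was divided by the mean of 8 DMSO control wells on the same plate and log10 transformed; duplicate blinded samples were tested at 4 concentrations.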

Tetrafluorosuccinic acid = compound: O=C(O)C(F)(F)C(F)(F)C(=O)O [Tetrafluorosuccinic acid]; settings: in DMSO
Experimental: as §1

[2] = compound: OCC(F)(F)C(F)(F)C(F)(F)C(F)(F)C(F)(F)C(F)(F)C(F)(F)C(F)(F)CO [1H,1H,10H,10H-Perfluorodecane-1,10-diol]; settings: in DMSO
Experimental: as §1

[3] = compound: OCCC(F)(F)C(F)(F)C(F)(F)C(F)(F)C(F)(F)C(F)(F)C(F)(F)C(F)(F)F [8:2 Fluorotelomer alcohol]; settings: 6700 nM; in DMSO
Experimental: as §1

[4] = compound: O=S(=O)(O)CCC(F)(F)C(F)(F)C(F)(F)C(F)(F)F [4:2 Fluorotelomer sulfonic acid]; settings: in DMSO
Experimental: as §1

[5] = compound: O=S(=O)(OCC(F)(F)F)C(F)(F)C(F)(F)C(F)(F)C(F)(F)F [2,2,2-Trifluoroethyl perfluorobutanesulfonate]; settings: in DMSO
Experimental: as §1

[6] = compound: OCC(F)(F)C(F)(F)C(F)(F)C(F)(F)C(F)(F)C(F)(F)F [6:1 Fluorotelomer alcohol]; settings: in DMSO
Experimental: as §1

Test System | level (log10) ([1]; 6700 nM) | level (log10) ([1]; 20000 nM) | level (log10) ([1]; 60000 nM) | level (log10) (Tetrafluorosuccinic acid; 6700 nM) | level (log10) (Tetrafluorosuccinic acid; 20000 nM) | level (log10) (Tetrafluorosuccinic acid; 60000 nM) | level (log10) ([2]; 6700 nM) | level (log10) ([2]; 20000 nM) | level (log10) ([2]; 60000 nM) | level (log10) [3] | level (log10) ([4]; 6700 nM) | level (log10) ([4]; 20000 nM) | level (log10) ([4]; 60000 nM) | level (log10) ([5]; 6700 nM) | level (log10) ([5]; 20000 nM) | level (log10) ([5]; 60000 nM) | level (log10) ([6]; 6700 nM) | level (log10) ([6]; 20000 nM) | level (log10) ([6]; 60000 nM)
HDF3CGF:Proliferation 72hr | -0.0095 ± 0.087 | 0.001 ± 0.042 | 0.008 ± 0.0071 | -0.08 ± 0.076 | -0.135 ± 0.061 | -0.0935 ± 0.069 | -0.0305 ± 0.046 | -0.112 ± 0.05 | -1.01 | -0.374 ± 0.26 | -0.022 ± 0.092 | 0.001 ± 0.021 | -0.007 ± 0.047 | -0.046 | -0.0425 ± 0.029 | -0.1 ± 0.047 | -0.0265 ± 0.033 | 0.003 ± 0.011 | -0.87 ± 0.098
HDF3CGF:CD106/VCAM-1 | -0.023 ± 0.0042 | -0.017 ± 0.03 | -0.07 ± 0.028 | 0.003 ± 0.027 | -0.029 ± 0.037 | -0.033 ± 0.045 | -0.038 ± 0.016 | -0.0995 ± 0.073 | -0.322 | -0.0265 ± 0.015 | 0.0515 ± 0.081 | 0.0365 ± 0.094 | 0.021 ± 0.11 | -0.022 ± 0.0099 | -0.05 ± 0.034 | -0.114 ± 0.037 | -0.0135 ± 0.013 | 0.004 ± 0.044 | -0.681 ± 0.28
HDF3CGF:Collagen III | -0.0545 ± 0.1 | -0.075 ± 0.031 | -0.034 ± 0.048 | -0.058 ± 0.057 | -0.0805 ± 0.059 | -0.118 ± 0.02 | -0.035 ± 0.0071 | -0.094 ± 0.045 | -0.438 | -0.0025 ± 0.032 | -0.0795 ± 0.13 | -0.0585 ± 0.14 | -0.0265 ± 0.09 | -0.0265 ± 0.018 | -0.0345 ± 0.033 | -0.0995 ± 0.037 | -0.0865 ± 0.14 | 0.0115 ± 0.074 | -0.367 ± 0.052
BE3C:Keratin 8/18 | -0.0165 ± 0.056 | -0.002 ± 0.05 | -0.003 ± 0.03 | 0.0225 ± 0.012 | 0.009 ± 0.013 | 0.0165 ± 0.00071 | -0.034 ± 0.0085 | -0.027 ± 0.0085 | -0.016 | -0.0185 ± 0.012 | 0.0065 ± 0.0021 | -0.002 ± 0.0014 | 0.0005 ± 0.0035 | -0.0055 ± 0.005 | -0.0075 ± 0.015 | -0.009 ± 0.0085 | 0.0055 ± 0.036 | -0.0035 ± 0.057 | -0.0125 ± 0.071
lMphg:CD69 | -0.0035 ± 0.044 | -0.0335 ± 0.025 | -0.0615 ± 0.047 | -0.048 ± 0.021 | 0.0125 ± 0.047 | 0.059 ± 0.073 | -0.003 ± 0.0099 | -0.019 ± 0.033 | -0.348 | -0.086 ± 0.035 | -0.023 ± 0.0028 | -0.014 ± 0.021 | -0.044 ± 0.059 | -0.016 ± 0.033 | -0.0355 ± 0.0021 | -0.079 ± 0.028 | -0.007 ± 0.047 | -0.038 ± 0.052 | -0.055 ± 0.073
KF3CT:uPA | -0.0035 ± 0.011 | -0.008 ± 0.021 | -0.003 ± 0.0042 | -0.012 ± 0.0071 | 0.0025 ± 0.0064 | -0.0285 ± 0.00071 | 0.007 ± 0.0042 | 0.009 ± 0.0071 | -0.021 | 0.0155 ± 0.0078 | 0 ± 0.0042 | 0 ± 0.0028 | -0.0075 ± 0.028 | -0.0085 ± 0.0021 | -0.043 ± 0.079 | -0.075 ± 0.0042 | -0.0045 ± 0.0092 | -0.002 ± 0.018 | 0.0085 ± 0.025
lMphg:M-CSF | -0.011 ± 0.0085 | -0.02 ± 0.02 | -0.021 ± 0.0071 | -0.005 ± 0.018 | -0.0105 ± 0.0092 | 0.019 ± 0.03 | -0.0155 ± 0.005 | -0.031 | -0.097 | -0.0345 ± 0.021 | -0.0105 ± 0.0078 | -0.024 ± 0.0099 | -0.0175 ± 0.0035 | 0.035 ± 0.017 | 0.014 ± 0.018 | -0.006 ± 0.021 | -0.023 ± 0.028 | -0.0415 ± 0.035 | -0.0285 ± 0.029
BE3C:MMP-1 | -0.012 ± 0.0014 | -0.0055 ± 0.015 | 0.048 ± 0.014 | -0.0025 ± 0.011 | -0.0125 ± 0.0078 | 0.032 ± 0.038 | 0.054 ± 0.0071 | 0.103 ± 0.042 | 0.137 | 0.0275 ± 0.021 | 0.002 ± 0.0014 | -0.0035 ± 0.0035 | 0.038 ± 0.057 | 0.01 ± 0.031 | 0.0165 ± 0.00071 | 0.0165 ± 0.00071 | -0.0115 ± 0.016 | 0 ± 0.0014 | 0.042 ± 0.013
CASM3C:PAI-I | -0.003 ± 0.0042 | 0.0005 ± 0.0021 | 0.001 ± 0.0042 | 0.0025 ± 0.0021 | 0.009 ± 0.0042 | 0.0105 ± 0.0035 | -0.0095 ± 0.0035 | -0.011 ± 0.0042 | -0.01 | -0.0035 ± 0.011 | -0.002 ± 0.0014 | -0.0015 ± 0.00071 | -0.002 ± 0.0057 | -0.0075 ± 0.0092 | 0.0015 ± 0.00071 | 0.0035 ± 0.0021 | -0.0035 ± 0.005 | -0.0015 ± 0.00071 | 0.003 ± 0.0085
lMphg:SRB | -0.0075 ± 0.0092 | -0.004 ± 0.0057 | 0.0005 ± 0.021 | -0.008 ± 0.0014 | 0.001 | 0.001 ± 0.013 | -0.0025 ± 0.013 | -0.014 ± 0.0057 | -1.09 | -0.02 | -0.0035 ± 0.00071 | 0.004 ± 0.0042 | -0.001 ± 0.0042 | -0.005 ± 0.0071 | -0.012 ± 0.0085 | -0.008 ± 0.018 | -0.001 ± 0.0099 | -0.001 ± 0.0028 | -0.0005 ± 0.0092
CASM3C:CD106/VCAM-1 | 0.0205 ± 0.013 | -0.006 ± 0.04 | 0.001 ± 0.02 | 0.0015 ± 0.0035 | -0.008 ± 0.027 | -0.0045 ± 0.0064 | 0 ± 0.02 | -0.0065 ± 0.025 | -0.151 | -0.0825 ± 0.015 | 0.0035 ± 0.0078 | -0.0285 ± 0.025 | -0.0325 ± 0.005 | -0.027 ± 0.014 | -0.038 ± 0.031 | -0.042 ± 0.083 | -0.0075 ± 0.026 | -0.001 ± 0.024 | -0.074 ± 0.034
MyoF:Decorin | 0.018 ± 0.014 | 0.0075 ± 0.005 | 0.022 ± 0.0014 | -0.0055 ± 0.0021 | -0.006 ± 0.0057 | 0.014 ± 0.027 | 0.004 ± 0.027 | -0.0005 ± 0.042 | 0.007 | -0.0195 ± 0.019 | -0.0075 ± 0.0078 | -0.012 ± 0.0014 | 0.004 ± 0.0028 | 0.0135 ± 0.066 | 0.027 ± 0.014 | 0.008 ± 0.052 | 0.004 ± 0.0071 | 0.0075 ± 0.0092 | 0.0005 ± 0.023
3C:CD54/ICAM-1 | 0.002 ± 0.0028 | 0.007 ± 0.0042 | 0.0135 ± 0.005 | -0.0015 ± 0.0092 | -0.016 ± 0.011 | 0.001 ± 0.0028 | -0.01 ± 0.0014 | -0.0035 ± 0.005 | -0.006 | -0.014 ± 0.0014 | 0.001 ± 0.0014 | -0.0125 ± 0.0021 | 0.0045 ± 0.012 | -0.006 ± 0.0028 | -0.0105 ± 0.0021 | -0.0095 ± 0.0064 | 0.004 | -0.001 ± 0.0071 | -0.0815 ± 0.12
KF3CT:CXCL9/MIG | 0.009 | 0 ± 0.0042 | 0.0005 ± 0.011 | -0.011 ± 0.014 | -0.011 ± 0.0099 | -0.017 ± 0.0014 | -0.0055 ± 0.0092 | -0.0085 ± 0.005 | -0.195 | 0.0045 ± 0.0078 | 0.0005 ± 0.0021 | 0.004 ± 0.016 | 0.0105 ± 0.016 | 0.023 ± 0.021 | 0.0095 ± 0.028 | 0.0015 ± 0.053 | -0.0025 ± 0.019 | -0.003 ± 0.016 | 0.0025 ± 0.0021
lMphg:CD40 | 0.0055 ± 0.011 | -0.005 ± 0.016 | -0.0195 ± 0.0078 | -0.0125 ± 0.015 | -0.011 ± 0.0014 | 0.009 ± 0.014 | -0.0285 ± 0.0064 | -0.0695 ± 0.032 | -0.536 | -0.0275 ± 0.0035 | -0.008 ± 0.0028 | -0.015 ± 0.021 | -0.026 ± 0.011 | -0.0015 ± 0.00071 | 0.0085 ± 0.04 | -0.007 ± 0.017 | -0.0065 ± 0.026 | -0.0095 ± 0.019 | -0.0235 ± 0.022
